One data set deals with MCF-12A cells. As to the kind of experiment: Cell viability by neutral red assay, MCF-12A. Type of data set: cell-based. How it is done:
Cells were seeded in 24 wells plates at a density of 10^4 cells per well and allowed to adhere for 24 hours. […] The drug was renewed every 2 days. Cell viability was then determined by neutral red assay, measuring absorbance at 550 nm.
(§1) After 6 days treatment, cells were seeded into 24 well plates at a density of 1×10^4 cells/wells. After 24 h, cells were treated with reagents or vehicle for up to six days. At the end of the incubation period, medium was removed and cells were incubated with neutral red solution (40 μg/ml in phenol red and serum free DMEM) for 2 h at 37° C. After removal of the neutral red solution, wells were rinsed once with 1 ml 4% formal saline containing 0.5% CaCl2. Plates were inverted on paper towel to drain and 200 μl of elution fluid (1% acetic acid in 50% ethanol) was added. Following incubation at room temperature for 30 min with gentle shaking, absorbance at 550 nm was determined

Another data set has as its system HBL-100 cells. As to the kind of experiment: Cell viability by neutral red assay, HBL-100. Type of data set: cell-based. Conditions: up to 6 days. Here is the method:
as §1
In order to validate the previous results obtained in MDA-MB-231 cells, two other vitamin D resistant cell lines MCF-7/VD^R and HBL-100 cells, were investigated. First the effect of lenalidomide on these cells lines were investigated. To this end, cells were treated for up to 6 days with different concentrations of lenalidomide (0 μM up to 10 μM). Cell viability was measured by neutal red dye assay (FIG. 13).
More particularly, FIG. 13 illustrates the effects of lenalidomide treatment on MCF-7/VDR and HBL-100 viability. MCF-7/VDR and HBL-100 cells were treated for up to 6 days with different concentrations of lenalidomide (0 μM up to 10 μM). Cell viability was measured by neutral red dye assay. Results are mean of three independent experiments (each made in quadruplicate).
Cell viability was measured by neutral red dye assay (FIG. 14).
More particularly, FIG. 14 illustrates the effects of lenalidomide/1, 25-D3 co-treatment on MCF-7/VDR and HBL-100 viability. MCF-7/VDR and HBL-100 cells were treated for up to 6 days with different concentrations of lenalidomide (0.01 μM up to 1 μM) alone or in combination with different concentrations of 1, 25-D3 (0 for up to 1000 nM). Cell viability was measured by neutral red dye assay. Results are mean of three independent experiments (each made in quadruplicate).
To accomplish this, cells were treated for up to 6 days with different concentrations of a BCL-2 inhibitor, ABT-263 ([…]). Non-treated cells were used as a control. After 6 days of treatment, cell viability was measured by neutral red assay (FIG. 16). In the three cell lines, BCL-2 inhibition leads to cell death. The IC50 is almost equivalent in all cell lines (1 μM+/−0.2 μM).
More particularly, FIG. 16 illustrates the effects of BCL-2 inhibition on MCF-7VD^R and HBL-100 viability. MDA-MB-231, MCF-7/VD^R and HBL-100 cells were treated for up to 6 days with different concentrations of ABT-263 (0.2 up to 20 μM). Non-treated cells were used as a control. After 6 days of treatment, cell viability was measured by neutral red assay. Results are mean of three independent experiments (each made in quadruplicate).

Setting [1] is: lenalidomide 0.01-1 μM alone or in combination with 1,25-D3 0-1000 nM, FIG. 14, p>0.05.

In the data set with MCF-12A cells (100 nM 1,25-D3 alone, up to 6 days, FIG. 7A), `C=C1/C(=C\C=C2/CCC[C@]3(C)[C@@H]([C@H](C)CCCC(C)(C)O)CC[C@@H]23)C[C@@H](O)C[C@@H]1O` [1,25-D3, 1α,25-dihydroxyvitamin D3] displayed an inhibition of viability of 35%. In addition, in the data set on MCF-12A cells (1,25 D3 0-100 nM, 7 days, FIG. 1), the “sensitivity of cell viability to vitamin D agent treatment” value was “showed sensitivity”. Besides, the differences in viability entry in the data set with HBL-100 cells (setting [1]) was “No significant differences”.

As to `Nc1cccc2c1CN(C1CCC(=O)NC1=O)C2=O` (stereo not drawn) [Lenalidomide, 1-oxo-2-(2,6-dioxopiperidin-3-yl)-4-aminoisoindoline], the “effect on cell viability” value with MCF-12A cells (single agent, up to 6 days, Thalidomide 0.01-100 μM, CC-4047 and lenalidomide 0.001-10 μM, FIG. 6A) is listed as “do not Affect”. Also, the differences in viability result is “No significant differences” in the data set with HBL-100 cells (lenalidomide 0 μM up to 10 μM, FIG. 13, p>0.05) and “No significant differences” in the data set on HBL-100 cells (setting [1]).

The record behind these values is US8841325B2, “Immunomodulatory compounds for the restoration of vitamin D sensitivity in vitamin D resistant tumor cells” (Celgene Corporation, priority 2009, dated 2014).
